Key:
Format in all cases: functional, cell-based
DU-4475 = test: Antiproliferative activity against human DU4475 cells after 72 hrs by MTT assay; conditions: DU-4475, 72 h
HCC1806 = test: Antiproliferative activity against human HCC1806 cells after 72 hrs by MTT assay; conditions: HCC1806, 72 h
MDA-MB-468 = test: Antiproliferative activity against human MDA-MB-468 cells after 72 hrs by MTT assay; conditions: MDA-MB-468, 72 h
MDA-MB-231 = test: Antiproliferative activity against human MDA-MB-231 cells after 72 hrs by MTT assay; conditions: MDA-MB-231, 72 h

SMILES	IC50 (DU-4475) [µM]	IC50 (HCC1806) [µM]	IC50 (MDA-MB-468) [µM]	IC50 (MDA-MB-231) [µM]
C=C1C(=O)[C@@]23C(=O)[C@@H](OC(C)=O)[C@@H]4C(C)(C)CC=C[C@@]4(COC(C)=O)[C@@H]2CC[C@@H]1[C@H]3OC(C)=O	1.9	2.42	1.66	3.71
C=C1C(=O)[C@@]23C(=O)[C@@H]4OC[C@]5(C=CCC(C)(C)[C@@H]45)[C@@H]2CC[C@@H]1[C@H]3OC(=O)/C=C/c1ccc2occc2c1	2.4	2.05	2.44	2.16
C=C1C(=O)[C@@]23C(=O)[C@@H]4OC[C@]5(C=CCC(C)(C)[C@@H]45)[C@@H]2CC[C@@H]1[C@H]3OC(=O)C=C(C)C	2.72	3.06	2.81	2.09
C=C1C(=O)[C@@]23C(=O)[C@@H]4OC[C@]5(C=CCC(C)(C)[C@@H]45)[C@@H]2CC[C@@H]1[C@H]3O	0.92	0.97	0.99	1.3
C=C1C(=O)[C@]23[C@H](O)[C@H]1CC[C@H]2[C@]12CCCC(C)(C)[C@H]1C[C@@]3(O)OC2	1.88	2.92	2.45	3.44
C=C1C(=O)[C@@]23C(=O)[C@@H]4OC[C@]5(C=CCC(C)(C)[C@@H]45)[C@@H]2CC[C@@H]1[C@H]3OC(=O)/C=C/c1ccsc1	2.82	2.74	3.07	2.18
C=C1C(=O)[C@@]23C(=O)[C@@H]4OC[C@]5(C=CCC(C)(C)[C@@H]45)[C@@H]2CC[C@@H]1[C@H]3OC(=O)C1CCCCC1	2.14	2.58	2.4	1.6
C=C1C(=O)[C@@]23C(=O)[C@@H]4OC[C@]5(C=CCC(C)(C)[C@@H]45)[C@@H]2CC[C@@H]1[C@H]3OC(=O)c1ccc(Cl)cc1	1.95	1.93	1.88	1.39
C=C1C(=O)[C@@]23C(=O)[C@@H]4OC[C@]5(C=CCC(C)(C)[C@@H]45)[C@@H]2CC[C@@H]1[C@H]3OC(=O)/C=C/c1ccncc1Cl	0.86	0.82	0.85	0.64
C=C1C(=O)[C@@]23C(=O)[C@@H]4OC[C@]5(C=CCC(C)(C)[C@@H]45)[C@@H]2CC[C@@H]1[C@H]3OC(=O)/C=C/c1ccnc(OC)c1	1.63	1.93	1.75	1.42
C=C1C(=O)[C@@]23C(=O)[C@@H]4OC[C@]5(C=CCC(C)(C)[C@@H]45)[C@@H]2CC[C@@H]1[C@H]3OC(=O)/C=C/c1ccc(OC)cc1	2.32	1.96	2.29	1.31
C=C1C(=O)[C@@]23C(=O)[C@@H]4OC[C@]5(C=CCC(C)(C)[C@@H]45)[C@@H]2CC[C@@H]1[C@H]3OC(=O)c1ccccc1	8.5	7.12	8.96	7.45
C=C1C(=O)[C@@]23C(=O)[C@@H]4OC[C@]5(C=CCC(C)(C)[C@@H]45)[C@@H]2CC[C@@H]1[C@H]3OC(=O)/C=C/c1ccc2c(c1)OCO2	2.48	3.02	2.65	2.23
C=C1C(=O)[C@@]23C(=O)[C@@H]4OC[C@]5(C=CCC(C)(C)[C@@H]45)[C@@H]2CC[C@@H]1[C@H]3OC(=O)c1ccc(S(C)(=O)=O)cc1	1.28	1.17	1.38	1.13
C=C1C(=O)[C@@]23C(=O)[C@@H]4OC[C@]5(C=CCC(C)(C)[C@@H]45)[C@@H]2CC[C@@H]1[C@H]3OC(=O)CCc1ccccc1	1.74	1.62	1.94	1.42
C=C1C(=O)[C@@]23C(=O)[C@@H]4OC[C@]5(C=CCC(C)(C)[C@@H]45)[C@@H]2CC[C@@H]1[C@H]3OC(=O)c1ccc(OC)cc1	1.89	1.71	2.02	1.3
C=C1C(=O)[C@@]23C(=O)[C@@H]4OC[C@]5(C=CCC(C)(C)[C@@H]45)[C@@H]2CC[C@@H]1[C@H]3OC(=O)c1cccnc1	2.62	2.73	1.37	1.07
C=C1C(=O)[C@@]23C(=O)[C@@H]4OC[C@]5(C=CCC(C)(C)[C@@H]45)[C@@H]2CC[C@@H]1[C@H]3OC(=O)c1ccncn1	0.85	0.74	0.85	0.64
C=C1C(=O)[C@@]23C(=O)[C@@H]4OC[C@@]5([C@H]4C(C)(C)CC[C@@H]5O)[C@@H]2CC[C@@H]1[C@H]3O	1.37	2.42	2.4	1.68

SMILES	IC50 (DU-4475) [µM]	IC50 (HCC1806) [µM]	IC50 (MDA-MB-468) [µM]	IC50 (MDA-MB-231) [µM]
C=C1C(=O)[C@@]23C(=O)[C@@H]4OC[C@]5(C=CCC(C)(C)[C@@H]45)[C@@H]2CC[C@@H]1[C@H]3OC(=O)/C=C/c1ccoc1	1.38	1.22	1.34	1.28
C=C1C(=O)[C@@]23C(=O)C[C@@H]4C(C)(C)CCC[C@@]4(COC(C)=O)[C@@H]2CC[C@@H]1[C@H]3OC(C)=O	1.81	2.87	2.49	3.66
C=C1C(=O)[C@@]23C(=O)[C@@H]4OC[C@]5(C=CCC(C)(C)[C@@H]45)[C@@H]2CC[C@@H]1[C@H]3OC(C)=O	0.75	1	0.79	0.96
C=C1C(=O)[C@@]23C(=O)[C@@H]4OC[C@]5(C=CCC(C)(C)[C@@H]45)[C@@H]2CC[C@@H]1[C@H]3OC(=O)c1cnccn1	0.71	0.73	0.76	0.53
C=C1C(=O)[C@@]23C(=O)[C@@H]4OC[C@]5(C=CCC(C)(C)[C@@H]45)[C@@H]2CC[C@@H]1[C@H]3OC(=O)/C=C/c1cncnc1	0.62	0.77	0.84	1.08
C=C1C(=O)[C@@]23C(=O)[C@@H]4OC[C@]5(C=CCC(C)(C)[C@@H]45)[C@@H]2CC[C@@H]1[C@H]3OC(=O)/C=C/c1ccc2ccccc2c1	2	1.78	2.25	1.47
C=C1C(=O)[C@@]23C(=O)[C@@H]4OC[C@]5(C=CCC(C)(C)[C@@H]45)[C@@H]2CC[C@@H]1[C@H]3OC(=O)/C=C/c1ccccc1	1.64	1.55	1.63	1.37
C=C1C(=O)[C@@]23C(=O)[C@@H]4OC[C@]5(C=CCC(C)(C)[C@@H]45)[C@@H]2CC[C@@H]1[C@H]3OC(=O)c1ccc(F)cc1	2.05	1.65	2.05	1.41
C=C1C(=O)[C@@]23C(=O)[C@@H]4OC[C@]5(C=CCC(C)(C)[C@@H]45)[C@@H]2CC[C@@H]1[C@H]3OC(=O)/C=C/c1ccc(Cl)cc1	2.15	1.97	2.34	1.62
C=C1C(=O)[C@@]23C(=O)[C@@H]4OC[C@]5(C=CCC(C)(C)[C@@H]45)[C@@H]2CC[C@@H]1[C@H]3OC(=O)c1ccc2ncccc2c1	2.59	2.67	2.56	2.11
C=C1C(=O)[C@@]23C(=O)[C@@H]4OC[C@]5(C=CCC(C)(C)[C@@H]45)[C@@H]2CC[C@@H]1[C@H]3OC(=O)/C=C/c1ccnc(Cl)c1	1.71	2.09	1.6	1.35
C=C1C(=O)[C@@]23C(=O)[C@@H]4OC[C@]5(C=CCC(C)(C)[C@@H]45)[C@@H]2CC[C@@H]1[C@H]3OC(=O)/C=C/c1ccc(F)cc1	1.75	1.63	1.6	1.18
C=C1C(=O)[C@@]23C(=O)[C@@H]4OC[C@]5(C=CCC(C)(C)[C@@H]45)[C@@H]2CC[C@@H]1[C@H]3OC(=O)/C=C/c1ccccn1	0.47	0.6	1.08	1.45
C=C1C(=O)[C@@]23C(=O)[C@@H]4OC[C@]5(C=CCC(C)(C)[C@@H]45)[C@@H]2CC[C@@H]1[C@H]3OC(=O)/C=C/c1cccnc1	0.34	0.31	0.53	0.68
C=C1C(=O)[C@@]23C(=O)[C@@H]4OC[C@]5(C=CCC(C)(C)[C@@H]45)[C@@H]2CC[C@@H]1[C@H]3OC(=O)/C=C(\C)c1ccccc1	2.44	1.85	1.99	1.48
C=C1C(=O)[C@@]23C(=O)[C@@H]4OC[C@]5(C=CCC(C)(C)[C@@H]45)[C@@H]2CC[C@@H]1[C@H]3OC(=O)/C=C/c1ccncc1F	1.1	1.14	1.04	0.85
C=C1C(=O)[C@@]23C(=O)[C@@H]4OC[C@]5(CCCC(C)(C)[C@@H]45)[C@@H]2CC[C@@H]1[C@H]3O	1.56	2.05	2.29	1.74
C=C1C(=O)[C@@]23C(=O)[C@@H]4OC[C@]5(C=CCC(C)(C)[C@@H]45)[C@@H]2CC[C@@H]1[C@H]3OC(=O)/C=C/c1ccnc(F)c1	0.94	1.12	1.03	0.7
C=C1C(=O)[C@@]23C(=O)[C@@H]4OC[C@]5(C=CCC(C)(C)[C@@H]45)[C@@H]2CC[C@@H]1[C@H]3OC(=O)c1ccncc1	1.42	1.39	1.32	1.08

From ChEMBL document CHEMBL4627407, “Identification of a Potent Oridonin Analogue for Treatment of Triple-Negative Breast Cancer” (J Med Chem, 2020)
